Results: publication PMC5974779, “Prediction of Drug-Induced Hepatotoxicity Using Long-Term Stable Primary Hepatic 3D Spheroid Cultures in Chemically Defined Conditions” (Toxicological Sciences, 2018)
Where two headings read alike, the source gives them in different places.

Experiments:
PHH 2D sandwich cultures = conditions: cited from earlier work
[1] = test system: PHH spheroids (hanging-drop); conditions: cited from earlier work
clinical DILI in man = conditions: cited from earlier work
[2] = cited from earlier work; for Extent of hepatic metabolism: ref DrugBank and Prescribers' Digital Reference database
[3] = test system: primary human hepatocytes (PHH) 3D spheroids
[4] = therapeutic total cmax; ref PMID; cited from earlier work
[5] = PHH 2D sandwich cultures, 100x Cmax, ref Xu 2008
[6] = PHH hanging-drop spheroids, 100x Cmax, ref Proctor 2017
[7] = clinical DILI classification in man (POS/NEG)
[8] = clinical DILI classification used in this study, Supplementary Table 2, ref Chen et al., 2011, Guo et al., 2005, O'Brien et al., 2006, Sakatis et al., 2012, Suzuki et al., 2010, Xu et al., 2008
[9] = clinical DILI classification, Supplementary Table 1, ref Chen et al., 2011, Guo et al., 2005, O'Brien et al., 2006, Sakatis et al., 2012, Suzuki et al., 2010, Xu et al., 2008
[10] = reported pattern of liver damage, Supplementary Table 2, ref literature
[11] = FDA drug labeling DILI score, ref Chen et al., 2011
[12] = clinical DILI classification, ref Xu et al. (2008)

CCCCc1oc2ccccc2c1C(=O)c1cc(I)c(OCCN(CC)CC)c(I)c1 [Amiodarone]
2Dsw (Xu 2008) 100x (PHH 2D sandwich cultures; [5]): Positive | Hanging-drop spheroids (Proctor 2017) 100x [1, 6]: Positive

CN(C)CCC(c1ccc(Cl)cc1)c1ccccn1 (centres unmarked) [Chlorpheniramine]
Classified as (clinical DILI in man; in vivo): NEG | Clinical DILI class (panel heading of Figure 4) (clinical DILI in man; in vivo): DILI negative | DILI in vivo (clinical DILI in man; in vivo): NEG | FDA (0-8) (clinical DILI in man; in vivo): 0 | Type of DILI (clinical DILI in man; in vivo): Non-hepatotoxic | Xu et al. (2008) (clinical DILI in man; in vivo): Positive | Extent of hepatic metabolism [2]: Extensive | Hanging-drop spheroids (Proctor 2017) 100x [1, 6]: Negative

COc1ccc2c(c1)c(CC(=O)O)c(C)n2C(=O)c1ccc(Cl)cc1 [Indomethacin]
Chemically defined spheroids (this study) 20x [3]: Positive | hepatotoxicity evaluation in CD-spheroids [3]: revealed the DILI liability | hepatotoxicity evaluation in CD-spheroids ([3]; human, 14 days): clearly detected already at 1× cmax exposure levels | hepatotoxicity classification in hanging-drop PHH spheroids ([1]; 100× cmax, 2 weeks, ref Proctor et al., 2017): previously missed

CS(=O)(=O)Nc1ccc([N+](=O)[O-])cc1Oc1ccccc1 [Nimesulide]
Chemically defined spheroids (this study) 20x [3]: Positive | Classified as (clinical DILI in man; in vivo): POS | Clinical DILI class (panel heading of Figure 4) (clinical DILI in man; in vivo): Severe DILI | DILI in vivo (clinical DILI in man; in vivo): POS | FDA (0-8) (clinical DILI in man; in vivo): Withdrawn | FDA (Severity) (clinical DILI in man; in vivo): most DILI concern | O'Brien et al. (2003) (clinical DILI in man; in vivo): Severely | Sakatis et al. (2012) (clinical DILI in man; in vivo): Hepatotoxic | Suzuki et al. (2010) (clinical DILI in man; in vivo): 3 | Type of DILI (clinical DILI in man; in vivo): Hepatocellular injury or Cholestatic injury | Xu et al. (2008) (clinical DILI in man; in vivo): Positive | Cmax [4]: 21100 nM | 2Dsw (Xu 2008) 100x (PHH 2D sandwich cultures): Positive | Hanging-drop spheroids (Proctor 2017) 100x [1]: Positive

CCN(CC)CC#CCOC(=O)C(O)(c1ccccc1)C1CCCCC1 (centres unmarked) [Oxybutynin]
Chemically defined spheroids (this study) 20x [3]: Negative | Classified as (clinical DILI in man; in vivo): NEG | Clinical DILI class (panel heading of Figure 4) (clinical DILI in man; in vivo): DILI negative | DILI in vivo (clinical DILI in man; in vivo): NEG | FDA (0-8) (clinical DILI in man; in vivo): 0 | Sakatis et al. (2012) (clinical DILI in man; in vivo): non-hepatotixic | Type of DILI (clinical DILI in man; in vivo): Non-hepatotoxic | Xu et al. (2008) (clinical DILI in man; in vivo): Negative | Cmax [4]: 20 nM | 2Dsw (Xu 2008) 100x (PHH 2D sandwich cultures): Negative | Hanging-drop spheroids (Proctor 2017) 100x [1]: Negative

Nc1ccc(/N=N/c2ccccc2)c(N)n1 [Phenazopyridine]
Chemically defined spheroids (this study) 20x [3]: Negative | DILI in vivo (clinical DILI in man; [7]): POS | Classified as (clinical DILI in man; [8]): POS | DILI in vivo (clinical DILI in man; [9]): POS | Type of DILI (clinical DILI in man; [10]): Hepatocellular injury | Cmax [4]: 110 nM | Extent of hepatic metabolism [2]: Moderate | 2Dsw (Xu 2008) 100x (PHH 2D sandwich cultures; [5]): Negative

NNCCc1ccccc1 [Phenelzine]
Chemically defined spheroids (this study) 20x [3]: Negative | Classified as (clinical DILI in man; in vivo): NEG | Clinical DILI class (panel heading of Figure 4) (clinical DILI in man; in vivo): DILI negative | DILI in vivo (clinical DILI in man; in vivo): NEG | FDA (0-8) (clinical DILI in man; in vivo): 3 | Sakatis et al. (2012) (clinical DILI in man; in vivo): Hepatotoxic | Type of DILI (clinical DILI in man; in vivo): Non-hepatotoxic | Xu et al. (2008) (clinical DILI in man; in vivo): Negative | Cmax [4]: 85 nM | Extent of hepatic metabolism [2]: Extensive | 2Dsw (Xu 2008) 100x (PHH 2D sandwich cultures; [5]): Negative

O=C1NC(=O)C(c2ccccc2)(c2ccccc2)N1 [Phenytoin]
Chemically defined spheroids (this study) 20x [3]: Negative | Classified as (clinical DILI in man; in vivo): POS | Clinical DILI class (panel heading of Figure 4) (clinical DILI in man; in vivo): Severe DILI | DILI in vivo (clinical DILI in man; in vivo): POS | FDA (0-8) (clinical DILI in man; in vivo): 8 | FDA (Severity) (clinical DILI in man; in vivo): less DILI concern | Guo et al. (2005) (clinical DILI in man; in vivo): 2 | Sakatis et al. (2012) (clinical DILI in man; in vivo): Hepatotoxic | Suzuki et al. (2010) (clinical DILI in man; in vivo): 2 | Type of DILI (clinical DILI in man; in vivo): Hepatocellular injury or Mixed hepatitis | Xu et al. (2008) (clinical DILI in man; in vivo): Positive | Cmax [4]: 21700 nM | Extent of hepatic metabolism [2]: Extensive | 2Dsw (Xu 2008) 100x (PHH 2D sandwich cultures; [5]): Positive

CC[C@@H]1C(=O)OC[C@@H]1Cc1cncn1C [Pilocarpine]
Chemically defined spheroids (this study) 20x [3]: Negative | FDA (0-8) (clinical DILI in man; [11]): 3 | DILI in vivo (clinical DILI in man; [7]): NEG | Classified as (clinical DILI in man; [8]): NEG | DILI in vivo (clinical DILI in man; [9]): NEG | Xu et al. (2008) (clinical DILI in man; [12]): Negative | Type of DILI (clinical DILI in man; [10]): Non-hepatotoxic | Cmax [4]: 84 nM | Extent of hepatic metabolism [2]: Minimal | 2Dsw (Xu 2008) 100x (PHH 2D sandwich cultures; [5]): Negative

COc1cc(NC(C)CCCN)c2ncccc2c1 (centres unmarked) [Primaquine]
Chemically defined spheroids (this study) 20x [3]: Negative | hepatotoxicity evaluation in CD-spheroids [3]: did not cause apparent toxicity at any concentration tested | FDA (Severity) (clinical DILI in man; FDA drug labeling DILI concern, ref Chen et al., 2011): no DILI concern | FDA (0-8) (clinical DILI in man; [11]): 0 | DILI in vivo (clinical DILI in man; [7]): NEG | Classified as (clinical DILI in man; [8]): NEG | DILI in vivo (clinical DILI in man; [9]): NEG | Xu et al. (2008) (clinical DILI in man; [12]): Negative | Type of DILI (clinical DILI in man; [10]): Non-hepatotoxic | Clinical DILI classification (Figure 5) (clinical DILI in man; structural analogue pairs, Figure 5, ref Chen et al., 2011, Xu et al., 2008 and others): DILI negative | Cmax [4]: 1080 nM | Extent of hepatic metabolism [2]: Extensive | 2Dsw (Xu 2008) 100x (PHH 2D sandwich cultures; [5]): Negative

Cc1ncc(CO)c(CO)c1O [Pyridoxine]
Chemically defined spheroids (this study) 20x [3]: Negative | Classified as (clinical DILI in man; in vivo): NEG | Clinical DILI class (panel heading of Figure 4) (clinical DILI in man; in vivo): DILI negative | DILI in vivo (clinical DILI in man; in vivo): NEG | FDA (0-8) (clinical DILI in man; in vivo): 0 | O'Brien et al. (2003) (clinical DILI in man; in vivo): Non-toxic | Type of DILI (clinical DILI in man; in vivo): Non-hepatotoxic | Xu et al. (2008) (clinical DILI in man; in vivo): Negative | Cmax [4]: 122 nM | Extent of hepatic metabolism [2]: Extensive | 2Dsw (Xu 2008) 100x (PHH 2D sandwich cultures; [5]): Negative

CCOC(=O)[C@H](CCc1ccccc1)N[C@@H](C)C(=O)N1Cc2ccccc2C[C@H]1C(=O)O [Quinapril]
Chemically defined spheroids (this study) 20x [3]: Negative | Guo et al. (2005) (clinical DILI in man; DILI classification score, ref Guo et al. (2005)): 3 | Suzuki et al. (2010) (clinical DILI in man; DILI classification score, ref Suzuki et al. (2010)): 1 | FDA (0-8) (clinical DILI in man; [11]): 3 | DILI in vivo (clinical DILI in man; [7]): POS | Classified as (clinical DILI in man; [8]): POS | DILI in vivo (clinical DILI in man; [9]): POS | Xu et al. (2008) (clinical DILI in man; [12]): Positive | Type of DILI (clinical DILI in man; [10]): Cholestatic injury | Cmax [4]: 1200 nM | Extent of hepatic metabolism [2]: Moderate | 2Dsw (Xu 2008) 100x (PHH 2D sandwich cultures; [5]): Negative

Cc1nc2n(c(=O)c1CCN1CCC(c3noc4cc(F)ccc34)CC1)CCCC2 [Risperidone]
Chemically defined spheroids (this study) 20x [3]: Negative | Classified as (clinical DILI in man; in vivo): POS | Clinical DILI class (panel heading of Figure 4) (clinical DILI in man; in vivo): High DILI concern | DILI in vivo (clinical DILI in man; in vivo): POS | FDA (0-8) (clinical DILI in man; in vivo): 3 | Guo et al. (2005) (clinical DILI in man; in vivo): 2 | Suzuki et al. (2010) (clinical DILI in man; in vivo): 1 | Type of DILI (clinical DILI in man; in vivo): Hepatocellular injury, Cholestatic injury or Mixed hepatitis | Xu et al. (2008) (clinical DILI in man; in vivo): Positive | Cmax [4]: 80 nM | Extent of hepatic metabolism [2]: Extensive | first pass metabolism ([2]; ref Madden et al., 1995, El-Hage and Surguladze, 2010, Rawden et al., 2000, Villaverde et al.): extensive first pass metabolism | 2Dsw (Xu 2008) 100x (PHH 2D sandwich cultures; [5]): Negative

Clc1ccccc1CN1CCc2sccc2C1 [Ticlopidine]
Cmax [4]: 8070 nM | 2Dsw (Xu 2008) 100x (PHH 2D sandwich cultures; [5]): Positive | Hanging-drop spheroids (Proctor 2017) 100x [1, 6]: Positive
